In publication PMC6987146, “Potent inhibition of HIV replication in primary human cells by novel synthetic polyketides inspired by Aureothin” (Scientific Reports, 2020):

Experiments:
[1] = test system: HIV-1V13-03413B; assay: Inhibition of multi-drug-resistant clinical isolate HIV-1 V13-03413B in PBMCs; format: cell-based, HIV-type 1; conditions: Human immunodeficiency virus 1, PBMC
Text: Clinical isolates represented the following HIV genotypes: HIV-1MMVP899-87: HIV-type 1, Major group; HIV-1OMVP5180-91: HIV-type 1, Outlier group; HIV-2MVP10668-93: HIV-type 2; HIV-1V13-03413B: HIV-type 1, Major group/B-clade, isolate with multiple drug-resistance mutations. Depicted are the means of three independent experiments with biological triplicates (n = 3; m = 3) and standard deviations (SD).
Isolation of primary clinical HIV-isolates HIV-1MMVP899-87, HIV-1OMVP5180-91, HIV-1V13-03413B and HIV-2MVP10668-93 is described in[43]. The HIV-1 M group/B-clade isolate (HIV-1V13-03413B) was isolated from a patient with virological treatment failure. Clinical isolates were produced from HIV infected H9 cells as described.
To evaluate anti-HIV efficacies of test compounds in primary human target cells, stimulated PBMCs were seeded in 96-well plates at a density of 500,000 cells per well, different #7concentrations of the compound (serial dilutions) and virus inoculum (MOI of 0.5) added to the PBMCs and cultures incubated for 48 h. Infectious virus production was quantified by transferring 35 µl of supernatant from the PBMC cultures to LC5-RIC cells, seeded in black 96-well plates one day earlier. LC5-RIC cultures were then incubated for 72 h and analysed for DsRed1 reporter expression and anti-HIV activity calculated as described for the EASY-HIT assay.

[2] = test system: HIV-1LAI; assay: Photostability of anti-HIV activity (24 h illumination vs dark, EASY-HIT read-out); format: cell-based; conditions: 24 h illumination vs same compound kept in the dark; compounds at IC90; LC5-RIC
Protocol: Figure 1 Profiling of photostability of anti-HIV activity of Aureothin and synthetic Aureothin-derivatives. Anti-HIV activity of compound samples illuminated for 24 h were normalised to anti-HIV activity of samples of the same compound kept in the dark. Anti-HIV activity was measured by quantifying the amounts of infectious virus produced by HIV-1LAI exposed LC5-RIC cells treated with compounds at IC90 concentrations (Supplementary Table S1). […] Shown are means of at least three independent experiments with biological triplicates (n ≥ 3; m = 3) and the standard error of the mean (SEM) indicated.
LC5-RIC cells were plated as described for the EASY-HIT assay. […] Plates were incubated either in the dark or under constant illumination with a commercially available desk lamp (2X Philips Master PL-S-9W/840/2 P, 30 cm between light source and compounds) for 24 h at room temperature. For analysis of anti-HIV activity, compound samples were transferred to LC5-RIC cells and their anti-HIV activity determined by measuring compound effects on infectious virus production with the EASY-HIT assay. Relative photostability was calculated by normalizing the anti-HIV activity of the illuminated compounds to the antiviral activity of compounds kept in the dark.

[3] = test system: HIV Gag protein (Gag-p24); assay: Intracellular Gag by p24 ELISA and western blot in LC5-RIC cells; format: cell-based; conditions: HIV-1LAI, 48 h
Protocol: LC5-RIC cells were plated, treated with compounds and inoculated with virus as described for Alu-PCR above. Cells were harvested, washed with PBS and incubated in 200 µl of PBS + 5% Triton X-100 for 5 min at room temperature. Cell lysates were centrifuged for 5 min at 400 g, supernatants collected, diluted 1:10,000 and Gag-p24 was detected by p24 Antigen Capture Assay (ABLinc) according to the manufacturer’s protocol.
Western blot analysis for Gag-p24 and GAPDH was performed as described in[48], using the primary antibodies anti-hGAPDH (ThermoFisher Scientific) and anti-HIV-p24 (Calbiochem) as well as the secondary anti-mouse-peroxidase antibody (Jackson ImmunoResearch), all diluted 1:10,000. Bands were visualized by enhanced chemiluminescence and detected by Fusion FX Chemiluminescence detector. Resulting blot images were processed with Fusion FX Software (adjusting brightness and contrast) and Microsoft PowerPoint (labelling and cropping).

[4] = test system: PBMC proteome; assay: Proteomics (LC-MSMS) of PBMCs treated with compound #7, with or without HIV exposure; format: cell-based, human; conditions: PBMCs from three donors; ≥2-fold change
Protocol: Stimulated PBMCs or CD4+ cells (5,000,000 cells) were seeded into 12-well plates before compound treatment and inoculation with HIV-1LAI at an MOI of 0.5, followed by 48 h incubation at 37 °C, 5% CO2. HIV inhibition was confirmed by quantifying infectious virus production in LC5-RIC cells as described above. Protein lysates were prepared from cells harvested, washed with PBS and lysed by incubating the cells for 10 min at 4 °C in lysis buffer (100 mM Tris-HCl pH 8.3, 150 mM NaCl, 1% glycerol, 1% NP-40, 0.5% deoxycholate, 0.1% SDS, 0.1% Triton-X100) and centrifuged for 20 min at 4 °C, 16,000 g to clear protein lysates. Protein concentrations were determined by using the Pierce^TM BCA Protein Assay Kit (ThermoFisher Scientific) according to manufacturer’s protocol. The proteomes of PBMCs from three different donors were analysed by LC-MSMS and data enrichment analysis was carried out using GeneRanker (Intrexon). For detailed information see Supplementary Methods.
After measuring the protein concentration of the cell lysates equal total protein amounts (10 µg per sample) were proteolysed with trypsin as described ^4 by a modified filter-aided sample preparation (FASP) procedure ^5.
Data analysis. The results from three donors were regarded as biological replicates. […]

[5] = target: T1, recombinant HIV-1 Protease (Human immunodeficiency virus type 1 group M subtype B, UniProt P04585); assay: HIV Protease Activity Assay (fluorogenic substrate); format: biochemical; conditions: 10 µM
T1 construct: 100 ng recombinant HIV-1 Protease protein (Abcam) was incubated with compounds; purchased Abcam
Protocol: HIV Protease Activity Assay. 100 ng recombinant HIV-1 Protease protein (Abcam) was incubated with compounds diluted in HIV Protease Activity Assay Buffer (0.1 M sodium acetate, 1.0 M sodium chloride, 1.0 mM ethylenediaminetetraacetic acid (EDTA), 1.0 mM dithiothreitol (DTT), 10% dimethyl sulfoxide (DMSO), 1 mg/ml bovine serum albumin (BSA), pH 7.4) for 1 h at room temperature in the dark. After the designated incubation time the mixtures were added to a 2.5 µM solution of HIV Protease Substrate 1 (Sigma-Aldrich) in HIV Protease Activity Assay Buffer prepared in black 96-well plates. The substrate harbours the fluorophore EDANS (5-(2-aminoethylamino)-1-naphthalene sulfonate) and the acceptor chromophore DABCYL (4’-dimethylaminoazobenzene-4-carboxylate) on opposite sides of the cleavage site (Tyr-Pro). Cleavage of the substrate by the HIV-1 protease results in separation of DABCYL and EDANS, eliminating the quenching effects on EDANS fluorescence at 490 nm. After an additional incubation time of 20 min at 37 °C the increase in fluorescence was measured using a fluorescence microplate reader at an excitation filter wavelength of 340 nm and an emission filter wavelength of 490 nm. Saquinavir was used as reference compound.

In the case of `COc1oc(C2C/C(=C/C(C)=C/c3ccc(C(F)(F)F)cc3)CO2)c(C)c(=O)c1C` (stereo not drawn) [compound #7], the IC50 ([1]; read-out: IC50 value, HIV-1 V13-03413B) is reported as 4.2 nM, the IC90 ([1]; read-out: IC90 value, HIV-1 V13-03413B) is reported as 10.5 nM and the “anti-HIV activity retained after exposure to light” value [2] is reported as “over 95%”. The “intracellular Gag levels” value [3] was “strongly suppressed production of Gag”, the “proportion of differentially expressed proteins (of total proteins detected)” value [4] was < 10% and the “inhibitory effect on Protease activity” value [5] was “no inhibitory effects”.
